One assay deals with CT2A mouse glioma cells. In words: Cytokine/chemokine array of glioma cell lysates. It counts as cell-based. As to conditions: OBT 4 μM, 24 hrs. As to the method:
To evaluate the effect of OBT on glioma secretome, CT2A mouse glioma cells were treated with OBT (4 μM) for 24 hrs and analyzed cell lysates by cytokine/chemokine array. GBM cells responded to OBT, Nrf2 and ROS induction, by activating several cytokines known to be involved in immune cell chemotaxis and migration (CCL2, CXCL10, IL-6). […] These innate immunity-related factors may directly contribute to control tumor growth or shape the development of adaptive immunity. Thus, OBT can induce factors that induces activation of tumor immune response.

For assay [1], the system named is patient-derived GBM8 GSC tumors. Description: FDG-PET imaging of orthotopic GSC brain tumors. The class given is in vivo, mice. The following applies: 3 doses of 10 mg/kg within 24 h, imaged 4 h after last dose; tumor to muscle ratio. An excerpt:
In vivo Tumor Models: Animal experiments performed by our laboratory were approved by the Massachusetts General Hospital Subcommittee on Research Animal Care. Female athymic nude mice (6-8 weeks) were used in all studies with the exception of pharmacokinetics analysis. For brain tumors xenograft model, GBM8 cells (1×10^5 cells/mouse) stably expressing Fluc were stereotactically implanted into the left striatum of animals. Following implantation, animals were regularly imaged for Fluc to monitor brain tumor growth. To generate the breast cancer model, MDA-MB-231 cells (2.5×10^5 cells/mouse) expressing Fluc were mixed with Matrigel 1:1 (v/v) (BD Matrigel) and injected into the mammary fat pad of mice. Tris-OBT was dissolved in PBS and administered intraperitoneally. Tumor volumes were measured using a caliper and calculated according to the following formula: volume=(width)^2×length/2. […]
FDG-PET imaging: Mouse PET/CT scans (n=6, 3 per group) were performed sequentially using a custom-designed mouse bed and PET/CT gantry adapter. […] The same ROIs are then copied to the matching PET images for quantification of the ^18F-FDG PET signal as the standard uptake values (SUVs). […]

The next assay relates to GSCs (GBM8 and BT07). Description: Multiplexed quantitative (TMT) proteomics after OBT treatment. It counts as cell-based, human. The following applies: 20 h after subtoxic dose, two GSC lines. The protocol: Quantitative Proteomics: Cell pellets were lysed in a buffer of 75 mM NaCl, 50 mM HEPES pH 8.5, 10 mM sodium pyrophosphate, 10 mM sodium fluoride, 10 mM β-glycerophosphate, 10 mM sodium orthovanadate, 10 mM PMSF, Roche complete mini EDTA free protease inhibitors (1 tablet per 20 ml), and 3% SDS. Lysis was achieved by passing the suspension through a 21-gauge needle 20 times. Proteins were prepared for proteomics analysis as described previously. […] Twelve fractions were analyzed by multiplexed quantitative proteomics performed on an Orbitrap Fusion mass spectrometer (Thermo Scientifc) using a Simultaneous Precursor Selection (SPS) based MS3 method. […] For the cell line samples only MS3 with an average signal-to-noise value of larger than 40 per reporter ion as well as with an isolation specificity of larger than 0.75 were considered for quantification. […] A two-step normalization of the protein TMT-intensities was performed by first normalizing the protein intensities over all acquired TMT channels for each protein based on the median average protein intensity calculated for all proteins. To correct for slight mixing errors of the peptide mixture from each sample a median of the normalized intensities was calculated from all protein intensities in each TMT channel and the protein intensities were normalized to the median value of these median intensities. […]

For assay [2], the system named is tumour-infiltrating CD4+ and CD8+ T cells. Description: Ex vivo stimulation of tumour-infiltrating T cells (anti-CD3/anti-CD28). As to conditions: cells from OBT-treated tumours, cultured 3 days. It counts as cell-based, mice. An excerpt:
To confirm reversion of T cell exhaustion and activation of cytotoxic T cells by OBT, tumour-infiltrating CD4+ and CD8+ T cells (n=3) were isolated and cultured in the presence of anti-CD3 and anti-CD28 antibodies to mimic an antigenic stimulation.

Consider one compound from US12521439B2, “Methods and materials for modulating Nrf2 pathway” (The General Hospital Corporation, priority 2019, dated 2026).

Structures are written as SMILES.

Consider `COC1=CC(=O)C(O)=C/C1=C/C=C/c1ccccc1` [OBT, (Z)-2-hydroxy-5-methoxy-4-((E)-3-phenylallylidene)cyclohexa-2,5-dien-1-one], for which, in the assay on CT2A mouse glioma cells, the “cytokines involved in immune response modulation (CD40, CXCL2, CCL5, CXCL-10, IL-6)” value is listed as “induced secretion”. The “decrease in FDG tumor uptake” value in assay [1] is given as around 50%. Also, the “heme oxygenase 1 (HMOX1; HO1) protein change” value with GSCs (GBM8 and BT07) is given as “top upregulated protein”. Moreover, in assay [2], the “response of CD4+ T cells to antigenic stimulus” value is “no change” and the “response of CD8+ T cells to antigenic stimulus (proliferation, Ki67, granzyme B)” value is listed as “significantly more responsive”.
